# Laboratory results published in article PMC10634366 (Microbiology, 2023).
# Key:
# Asuc_0142 (DcuAAs) [1] = molecular target: T1, Asuc_0142 (DcuAAs) (Actinobacillus succinogenes, UniProt A6VKM5); test: inhibition of […] min […]fumarate uptake, E. coli IMW529 cells; assay type: cell-based; details: read-out: % inhibition at 1 mM
# T1 construct: full-length gene from 130Z genomic DNA in pBAD30-derived pMB61 (pMB147), expressed in E. coli IMW529 lacking DcuA, DcuB, DcuC, TtdT and CitT
# Asuc_0142 (DcuAAs) [2] = molecular target: T1, Asuc_0142 (DcuAAs); test: as above; assay type: cell-based; details: 100 µM [14C]fumarate; anaerobic, pH 7, 37 °C
Structure (SMILES),inhibition at 1000 µM (Asuc_0142 (DcuAAs) [1]),% inhibition at 1 mM (Asuc_0142 (DcuAAs) [2])
O=C(O)/C=C/C(=O)O [fumarate],82%,
O=C(O)CCC(=O)O [succinate],,the inhibition by succinate and L-malate was only moderate
O=C(O)C[C@H](O)C(=O)O [L-malate],,the inhibition by succinate and L-malate was only moderate
N[C@@H](CC(=O)O)C(=O)O [L-aspartate],95%,
